From paper PMC8388802, “Study on the Structure-Activity Relationship of an Antimicrobial Peptide, Brevinin-2GUb, from the Skin Secretion of Hylarana guentheri” (Antibiotics, 2021)
≈ marks a conversion by molar mass, not a printed value. Where a SMILES comes first, the peptide text is derived from it.

How the values were obtained:
[1] = test system: S. aureus (ATCC 6538) biofilm; assay type: cell-based, Staphylococcus aureus; settings: ATCC 6538, 24 h
Method: (§1) The anti-biofilm activities of the peptides against S. aureus (ATCC 6538), MRSA (NCTC 12493), E. faecalis (NCTC 12493), E. coli (ATCC CRM 8739), K. pneumoniae (ATCC 43816), and P. aeruginosa (ATCC CRM 9027) were evaluated.
(§2) The bacteria were inoculated in a different medium (Gram-positive bacteria were in TSB and Gram-negative bacteria were in LB) overnight, and the subculture was conducted in the same medium. When the bacteria reached a specific density, 100 µL of the dilution was added to each well of the 96-well microplate. Then 1 µL of peptide at a series of concentrations, the same concentration in the antimicrobial assay, were added into the well together with the bacteria. The plates were put into a moist shaking incubator with a speed of 200 rpm, and the temperature was set at 37 ℃. After a 24-h incubation, the liquid in the wells was aspirated, and each was washed twice by 100 µL PBS. One hundred µL of methanol were added into each well to stabilise the biofilm. After air-drying, 100 µL crystal violet was used to dye the biofilm, and they were dissolved in the 100 µL glacial acidic acid after drying. The solutions were transferred to a new microplate, and the absorbance of each well was tested by a microplate reader (EL808, Biolise BioTek Winooski, Minneapolis, MN, USA) at 595 nm wavelength. MBIC was the minimum concentration of the peptide showing no biofilm formation.
(§3) The bacteria were inoculated in a different medium (Gram-positive bacteria were in TSB and Gram-negative bacteria were in LB) overnight, and the subculture was conducted in the same medium. When the bacteria reached a specific density, 100 µL of the dilution was added to each well of the 96-well microplates. The plates were put into a moist shaking incubator with a speed of 200 rpm and the temperature was 37 ℃. After a 24 h incubation, the liquid in the wells was aspirated and they were washed twice by 100 µL PBS of each well. The peptides with the same concentrations were diluted in the corresponding medium and 100 µL were added into each well. After a 24-h incubation, the liquid in the wells was aspirated and they were washed twice by 100 µL PBS. One hundred µL of methanol were added into the wells to stabilise the biofilms. After being air-dried, 100 µL crystal violet was used to dye the biofilm, and they were dissolved in the 100 µL glacial acidic acid after drying. The solutions were transferred to a new microplate, and the absorbance of each well was tested by a microplate reader (EL808, Biolise BioTek Winooski, Minneapolis, USA) at 595 nm wavelength.

[2] = test system: K. pneumoniae (ATCC 43816) biofilm; assay type: cell-based, Klebsiella pneumoniae; settings: ATCC 43816, 24 h
Method: as §1, §2, §3

[3] = test system: K. pneumoniae (ATCC 43816); assay type: cell-based, Klebsiella pneumoniae
Method: (§4) The method of antimicrobial assay is based on the Methods for Dilution Antimicrobial Susceptibility Tests for Bacteria that Grow Aerobically from the Clinical and Laboratory Standards Institute (CLSI).The antimicrobial activities of peptides were evaluated against Gram-positive bacteria S. aureus (ATCC 6538), MRSA (NCTC 12493), E. faecalis (NCTC 12493), Gram-negative bacteria E. coli (ATCC CRM 8739), K. pneumoniae (ATCC 43816), P. aeruginosa (ATCC CRM 9027), yeast C. albicans (ATCC CRM 10231) and clinical isolates MRSA (B042 V2E1 A), E. coli (ATCC BAA-2340), K. pneumoniae (ATCC BAA-1705), P. aeruginosa (B004 V2S2 B).
(§5) At the first stage of the assay, 20 μL bacteria were cultured in 100 mL Mueller Hinton Broth (MHB) or Yeast Extract–Peptone–Dextrose broth (YPD-B), respectively, and was incubated overnight. Then, microorganisms were subcultured in 20 mL fresh MHB or YPD-B to achieve cultures in the logarithmic phase (1 × 10^8 CFU/mL), which can be verified by optical density (OD) (The OD of Gram-positive bacteria is 0.23, OD of Gram-negative bacteria is 0.4, and OD of yeast is 0.15), and viable cell counts. Then, the medium was used to dilute the cultures to specific cell densities (Gram-negative and Gram-positive bacteria: 5 × 10^5 CFU/mL; yeast: 1 × 10^6 CFU/mL), which were the final concentrations of bacterial suspensions used in the assay. The peptides were dissolved in DMSO to reach a final concentration of 512 µM. A series of two-fold dilutions ranging from 512 µM to 1 µM were dosed in the 96-well plates.
(§6) Antimicrobial assays were conducted in 96-well plates, which were divided into five groups, including a negative control group (PBS), a positive control group (20 μg/mL norfloxacin for bacteria and 10 μg/mL amphotericin B for yeast), vehicle control (1% DMSO), blank control (MHB or YPD-B), and a peptide group. Each microorganism had five repetitions, and each well contained 1 µL corresponding solution and 99 µL culture. After incubation at 37 °C overnight, the absorbance of each well was tested by a microplate reader (EL808, Biolise BioTek Winooski, Minneapolis, USA) under a 550 nm wavelength. The MIC is the lowest concentration at which no bacterial growth can be observed.
(§7) The next day, 10 µL of every clear well was taken out to be cultured on a Mueller Hinton Agar (MHA) plate and incubated at 37 °C for 16–20 h. The MBC is the lowest concentration without any bacterial colonies, which means at this concentration, the peptide reduces the viability of the pathogen by more than 99.9%.

[4] = test system: K. pneumoniae (ATCC BAA-1705); assay type: cell-based, Klebsiella pneumoniae
Method: as §4, §5, §6, §7

[5] = test system: P. aeruginosa (ATCC CRM 9027); assay type: cell-based, Pseudomonas aeruginosa
Method: as §4, §5, §6, §7

[6] = test system: P. aeruginosa (B004 V2S2 B); assay type: cell-based, Pseudomonas aeruginosa
Method: as §4, §5, §6, §7

Compound	MIC [3]	MIC [4]	MIC [5]	MIC [6]	MBEC [1]	MBIC [1]	MBEC [2]	MBIC [2]	MBC [3]	MBC [4]	MBC [5]	MBC [6]
CC[C@H](C)[C@H](NC(=O)[C@@H](NC(=O)CN)C(C)C)C(=O)N[C@H](C(=O)N[C@@H](CCCCN)C(=O)N[C@H](C(=O)N[C@@H](CC(C)C)C(N)=O)[C@@H](C)O)[C@@H](C)CC [Peptide 7-tB2U-K] (H-GVIIKTL-NH2)	>512 µM	>512 µM	>512 µM	>512 µM	512/>512 μM	512/>512 μM	>512 µM	>512 µM	>512 µM	>512 µM	>512 µM	>512 µM
CC[C@H](C)[C@H](NC(=O)[C@@H](NC(=O)CN)C(C)C)C(=O)N[C@H](C(=O)N[C@@H](CCCCN)C(=O)N[C@@H](CCCCN)C(=O)N[C@@H](CC(C)C)C(=O)N[C@@H](CCCCN)C(=O)NCC(=O)N[C@@H](C)C(=O)N[C@@H](C)C(=O)N[C@@H](CCCCN)C(=O)N[C@@H](CCCCN)C(=O)N[C@H](C(=O)N[C@@H](C)C(=O)N[C@@H](C)C(=O)N[C@@H](CCCCN)C(=O)N[C@@H](CC(C)C)C(=O)N[C@@H](CC(C)C)C(N)=O)C(C)C)[C@@H](C)CC [tB2U-6K] (H-GVIIKKLKGAAKKVAAKLL-NH2)	32 µM (≈ 62.4 µg/mL)	128 µM (≈ 249 µg/mL)	16 µM (≈ 31.2 µg/mL)	64 µM (≈ 125 µg/mL)	> 512 µM	64 µM	> 512 µM	32 µM	32 µM (≈ 62.4 µg/mL)	128 µM (≈ 249 µg/mL)	16 µM (≈ 31.2 µg/mL)	64 µM (≈ 125 µg/mL)
CC[C@H](C)[C@H](NC(=O)[C@@H](NC(=O)CN)C(C)C)C(=O)N[C@H](C(=O)N[C@@H](CCCCN)C(=O)N[C@H](C(=O)N[C@@H](CC(C)C)C(=O)N[C@@H](CCCCN)C(=O)NCC(=O)N[C@@H](C)C(=O)N[C@@H](C)C(=O)N[C@@H](CCCCN)C(=O)N[C@H](C(=O)N[C@H](C(N)=O)C(C)C)[C@@H](C)O)[C@@H](C)O)[C@@H](C)CC [Peptide 14-tB2U-K] (H-GVIIKTLKGAAKTV-NH2)	>512 µM	>512 µM	>512 µM	>512 µM	>512 µM	>512 µM	>512 µM	>512 µM	>512 µM	>512 µM	>512 µM	>512 µM

Further lines, with some results ahead:

MIC [3]	MIC [4]	MIC [5]	MIC [6]	Compound	MBEC [1]	MBIC [1]	MBEC [2]	MBIC [2]	MBC [3]	MBC [4]	MBC [5]	MBC [6]
>512 µM	>512 µM	>512 µM	>512 µM	CC[C@H](C)[C@H](NC(=O)[C@@H](NC(=O)CN)C(C)C)C(=O)N[C@H](C(=O)N[C@@H](CC(=O)O)C(=O)N[C@H](C(=O)N[C@@H](CC(C)C)C(=O)N[C@@H](CCCCN)C(=O)NCC(=O)N[C@@H](C)C(=O)N[C@@H](C)C(=O)N[C@@H](CCCCN)C(=O)N[C@H](C(=O)N[C@H](C(=O)N[C@@H](C)C(=O)N[C@@H](C)C(=O)N[C@@H](CCC(=O)O)C(=O)N[C@@H](CC(C)C)C(=O)N[C@@H](CC(C)C)C(N)=O)C(C)C)[C@@H](C)O)[C@@H](C)O)[C@@H](C)CC [tB2U-α] (H-GVIIDTLKGAAKTVAAELL-NH2)	>512 µM	>512 µM	>512 µM	>512 µM	>512 µM	>512 µM	>512 µM	>512 µM
128 µM (≈ 242 µg/mL)	128 µM (≈ 242 µg/mL)	32 µM (≈ 60.6 µg/mL)	>512 µM	CC[C@H](C)[C@H](NC(=O)[C@@H](NC(=O)CN)C(C)C)C(=O)N[C@H](C(=O)N[C@@H](CCCCN)C(=O)N[C@H](C(=O)N[C@@H](CC(C)C)C(=O)N[C@@H](CCCCN)C(=O)NCC(=O)N[C@@H](C)C(=O)N[C@@H](C)C(=O)N[C@@H](CCCCN)C(=O)N[C@H](C(=O)N[C@H](C(=O)N[C@@H](C)C(=O)N[C@@H](C)C(=O)N[C@@H](CCCCN)C(=O)N[C@@H](CC(C)C)C(=O)N[C@@H](CC(C)C)C(N)=O)C(C)C)[C@@H](C)O)[C@@H](C)O)[C@@H](C)CC [tB2U-K] (H-GVIIKTLKGAAKTVAAKLL-NH2)	> 512 µM	16 µM	> 512 µM	128 µM	128 µM (≈ 242 µg/mL)	128 µM (≈ 242 µg/mL)	32 µM (≈ 60.6 µg/mL)	>512 µM
512 µM (≈ 1220 µg/mL)	>512 µM	>512 µM	>512 µM	CC[C@H](C)[C@H](NC(=O)[C@@H](NC(=O)CN)C(C)C)C(=O)N[C@H](C(=O)N[C@@H](CC(=O)O)C(=O)N[C@H](C(=O)N[C@@H](CC(C)C)C(=O)N[C@@H](CCCCN)C(=O)NCC(=O)N[C@@H](C)C(=O)N[C@@H](C)C(=O)N[C@@H](CCCCN)C(=O)N[C@H](C(=O)N[C@H](C(=O)N[C@@H](C)C(=O)N[C@@H](C)C(=O)N[C@@H](CCC(=O)O)C(=O)N[C@@H](CC(C)C)C(=O)N[C@@H](CC(C)C)C(=O)N[C@@H](CCCNC(=N)N)C(=O)N[C@@H](CCCCN)C(=O)N[C@@H](C)C(=O)N[C@@H](Cc1c[nH]cn1)C(N)=O)C(C)C)[C@@H](C)O)[C@@H](C)O)[C@@H](C)CC [tB2U] (H-GVIIDTLKGAAKTVAAELLRKAH-NH2)	>512 µM	>512 µM	>512 µM	>512 µM	> 512 µM	>512 µM	>512 µM	>512 µM
